The record followed here is ChEMBL document CHEMBL4020777, “Cytotoxic and apoptosis-inducing activities against human lung cancer cell lines of cassaine diterpenoids from the bark of Erythrophleum fordii” (Bioorg Med Chem Lett, 2017).

Test [1] has as its system NCI-H1299. In words: Cytotoxicity against human NCI-H1299 cells by MTT assay. The test is classed as functional, cell-based. In general terms: Tetrazolium assays rely on reduction of a dye to a coloured formazan, in cell work by metabolically active cells.
For test [2], the system named is A549. In words: Cytotoxicity against human A549 cells by MTT assay. Format: functional, cell-based.
For test [3], the system named is NCI-H1975. In words: Cytotoxicity against human NCI-H1975 cells by MTT assay. Format: functional, cell-based.
Test [4] relates to A549. In words: Induction of apoptosis in human A549 cells assessed as late apoptotic cells at 0.1 uM after 48 hrs by Annexin-V-FITC/propidium iodide staining based flow cytometric method (reference value: 3.4 to 4.76%). The test is classed as functional.
Test [5] has as its system NCI-H1299. The test can be described thus: Induction of apoptosis in human NCI-H1299 cells after 48 hrs by Annexin-V-FITC/propidium iodide staining based flow cytometric method. Format: functional, cell-based.
Test [6] relates to NCI-H1975. The test can be described thus: Induction of apoptosis in human NCI-H1975 cells assessed as late apoptotic cells at 0.1 uM after 48 hrs by Annexin-V-FITC/propidium iodide staining based flow cytometric method (reference value: 2.92 to 4.29%). The test is classed as functional. A general note: A flow cytometer gives signals particle by particle.
Test [7] relates to NCI-H1299. In words: Induction of apoptosis in human NCI-H1299 cells assessed as late apoptotic cells at 0.1 uM after 48 hrs by Annexin-V-FITC/propidium iodide staining based flow cytometric method (reference value: 2.69%). Format: functional.
Test [8] has as its system NCI-H1975. The test can be described thus: Induction of apoptosis in human NCI-H1975 cells assessed as early apoptotic cells at 0.1 uM after 48 hrs by Annexin-V-FITC/propidium iodide staining based flow cytometric method (reference value: 2.5 to 3.56%). The test is classed as functional.
In test [9] the test system is NCI-H1299. The test can be described thus: Induction of apoptosis in human NCI-H1299 cells assessed as early apoptotic cells at 0.1 uM after 48 hrs by Annexin-V-FITC/propidium iodide staining based flow cytometric method (reference value: 1.91%). Format: functional.
For test [10], the system named is A549. In words: Induction of apoptosis in human A549 cells assessed as late apoptotic cells at 0.3 uM after 48 hrs by Annexin-V-FITC/propidium iodide staining based flow cytometric method (reference value: 3.4 to 4.76%). Format: functional.
Test [11] concerns A549. The test can be described thus: Induction of apoptosis in human A549 cells after 48 hrs by Annexin-V-FITC/propidium iodide staining based flow cytometric method. Format: functional, cell-based.
Test [12] concerns NCI-H1975. In words: Induction of apoptosis in human NCI-H1975 cells after 48 hrs by Annexin-V-FITC/propidium iodide staining based flow cytometric method. The test is classed as functional, cell-based.
Test [13] relates to A549. In words: Induction of apoptosis in human A549 cells assessed as early apoptotic cells at 0.3 uM after 48 hrs by Annexin-V-FITC/propidium iodide staining based flow cytometric method (reference value: 1.04 to 2.73%). The test is classed as functional.
Test [14] deals with A549. The test can be described thus: Induction of apoptosis in human A549 cells assessed as early apoptotic cells at 0.1 uM after 48 hrs by Annexin-V-FITC/propidium iodide staining based flow cytometric method (reference value: 1.04 to 2.73%). The test is classed as functional.
The subject of test [15] is NCI-H1299. In words: Induction of apoptosis in human NCI-H1299 cells assessed as late apoptotic cells at 0.3 uM after 48 hrs by Annexin-V-FITC/propidium iodide staining based flow cytometric method (reference value: 2.69%). The test is classed as functional.
Test [16] relates to NCI-H1975. In words: Induction of apoptosis in human NCI-H1975 cells assessed as early apoptotic cells at 0.3 uM after 48 hrs by Annexin-V-FITC/propidium iodide staining based flow cytometric method (reference value: 2.5 to 3.56%). Format: functional.
Test [17] deals with NCI-H1975. The test can be described thus: Induction of apoptosis in human NCI-H1975 cells assessed as late apoptotic cells at 0.3 uM after 48 hrs by Annexin-V-FITC/propidium iodide staining based flow cytometric method (reference value: 2.92 to 4.29%). The test is classed as functional.
The subject of test [18] is NCI-H1299. The test can be described thus: Induction of apoptosis in human NCI-H1299 cells assessed as early apoptotic cells at 0.3 uM after 48 hrs by Annexin-V-FITC/propidium iodide staining based flow cytometric method (reference value: 1.91%). Format: functional.
Test [19] deals with NCI-H1299. In words: Induction of apoptosis in human NCI-H1299 cells assessed as late apoptotic cells at 3 uM after 48 hrs by Annexin-V-FITC/propidium iodide staining based flow cytometric method (reference value: 2.69%). Format: functional.
Test [20] has as its system NCI-H1975. In words: Induction of apoptosis in human NCI-H1975 cells assessed as early apoptotic cells at 3 uM after 48 hrs by Annexin-V-FITC/propidium iodide staining based flow cytometric method (reference value: 2.5 to 3.56%). Format: functional.
The subject of test [21] is NCI-H1299. The test can be described thus: Induction of apoptosis in human NCI-H1299 cells assessed as early apoptotic cells at 3 uM after 48 hrs by Annexin-V-FITC/propidium iodide staining based flow cytometric method (reference value: 1.91%). The test is classed as functional.
Test [22] relates to A549. The test can be described thus: Induction of apoptosis in human A549 cells assessed as late apoptotic cells at 3 uM after 48 hrs by Annexin-V-FITC/propidium iodide staining based flow cytometric method (reference value: 3.4 to 4.76%). Format: functional.
For test [23], the system named is A549. The test can be described thus: Induction of apoptosis in human A549 cells assessed as early apoptotic cells at 3 uM after 48 hrs by Annexin-V-FITC/propidium iodide staining based flow cytometric method (reference value: 1.04 to 2.73%). Format: functional.
Test [24] concerns NCI-H1975. The test can be described thus: Induction of apoptosis in human NCI-H1975 cells assessed as late apoptotic cells at 3 uM after 48 hrs by Annexin-V-FITC/propidium iodide staining based flow cytometric method (reference value: 2.92 to 4.29%). Format: functional.

Regarding `COC(=O)/C=C1\CC[C@H]2[C@@H](C(=O)[C@H](O)[C@@H]3[C@]2(C)CCC[C@]3(C)C(=O)OC)[C@H]1C`, the IC50 in the test on NCI-H1299 [1], with A549 [2] and with NCI-H1975 [3] was more than 10 µM each time.
As for `CNCCOC(=O)/C=C1\CC[C@H]2[C@@H]([C@@H](O)C(=O)[C@@H]3[C@]2(C)CCC[C@]3(C)C(=O)OC)[C@H]1C`, the half-maximal inhibitory concentration (IC50) in the test with NCI-H1299 [1] worked out at 1.2 µM; in the test with A549 [2], 0.9 µM; with NCI-H1975 [3], 1 µM.
Take `COC(=O)[C@@]1(C)CCC[C@@]2(C)[C@H]1C[C@H](O)[C@H]1[C@@H](C)/C(=C/C(=O)OCCN(C)C)CC[C@@H]12`: the IC50 in the test with NCI-H1299 [1] turned out to be 2.4 µM; in the test on A549 [2], 3.1 µM; in the test with NCI-H1975 [3], 2.6 µM.
The like results for `COC(=O)CC1=CC[C@H]2[C@@H](C(=O)[C@H](O)[C@@H]3[C@]2(C)CCC[C@]3(C)C(=O)OC)[C@H]1C` were, in that order, more than 10 µM, more than 10 µM and more than 10 µM.
The like results for `COC(=O)/C=C1\CC[C@H]2[C@@H](C(=O)C[C@@H]3[C@]2(C)CC[C@H](OC(C)=O)[C@]3(C)C(=O)OC)[C@H]1C` were, in that order, more than 10 µM, more than 10 µM and more than 10 µM.
The like results for `CNCCOC(=O)/C=C1\CC[C@H]2[C@@H](C(=O)[C@H](O)[C@@H]3[C@]2(C)CCC[C@]3(C)C(=O)OC)[C@H]1C` were, in that order, 1.5 µM, 2.1 µM and 3.3 µM.
On to `COC(=O)[C@@]1(C)CCC[C@@]2(C)[C@H]1CC(=O)[C@H]1[C@@H](C)/C(=C/C(=O)OCCN(C)C)CC[C@@H]12`, for which the IC50 with NCI-H1299 [1] amounted to 1.9 µM; in the test with A549 [2] it was 3.4 µM; in the test with NCI-H1975 [3] it was 2.1 µM.
For the compound `C/C=C(\C)C(=O)O[C@H]1CC[C@@]2(C)[C@@H]([C@@H](O)C(=O)[C@H]3[C@@H](C)/C(=C/C(=O)OC)CC[C@@H]32)[C@@]1(C)C(=O)OC`, the concentration for half-maximal inhibition (IC50) in the test on NCI-H1299 [1], with A549 [2] and in the test with NCI-H1975 [3] was more than 10 µM each time.
As for `COC(=O)[C@@]1(C)CCC[C@@]2(C)[C@H]1[C@@H](O)C(=O)[C@H]1[C@@H](C)/C(=C/C(=O)OCCN(C)C)CC[C@@H]12`, the 50% inhibitory concentration (IC50) was 3.8 µM in the test on NCI-H1299 [1], 4.8 µM with A549 [2] and 5.9 µM with NCI-H1975 [3].
Consider `COC(=O)[C@@]1(C)CCC[C@@]2(C)[C@H]1C(=O)[C@H](O)[C@H]1[C@@H](C)/C(=C/C(=O)OCCN(C)C)CC[C@@H]12`, for which the IC50 with NCI-H1299 [1], in the test with A549 [2] and in the test on NCI-H1975 [3] was more than 10 µM in each case.
On to `CC[C@@]1(O)C(=O)OCc2c1cc1n(c2=O)Cc2cc3ccccc3nc2-1` [CAMPTOTHECIN], for which the Activity is 10.25% with A549 [4]; “Dose-dependent effect” in the test on NCI-H1299 [5]; 6.73% with NCI-H1975 [6]; 5.22% with NCI-H1299 [7]; 5.54% in the test with NCI-H1975 [8]; 13.04% in the test on NCI-H1299 [9]. Also, the Activity in the test on A549 [10] was 14.14%; in the test on A549 [11], “Dose-dependent effect”; with NCI-H1975 [12] it was “Dose-dependent effect”; in the test with A549 [13], 20.33%; with A549 [14], 14.17%; in the test with NCI-H1299 [15], 9.44%. Moreover, the Activity in the test on NCI-H1975 [16] turned out to be 7.9%; in the test with NCI-H1975 [17] it was 31.47%; in the test on NCI-H1299 [18] it was 13.16%. Further, the 50% inhibitory concentration (IC50) came to 0.8 µM in the test on NCI-H1299 [1], 0.7 µM in the test with A549 [2] and 1.2 µM in the test on NCI-H1975 [3].
For `COC(=O)/C=C1\CC[C@H]2[C@@H]([C@@H](O)C(=O)[C@@H]3[C@]2(C)CCC[C@]3(C)C(=O)OC)[C@H]1C`, the 50% inhibitory concentration (IC50) with NCI-H1299 [1], in the test with A549 [2] and in the test with NCI-H1975 [3] was more than 10 µM throughout.
For `C/C=C(\C)C(=O)O[C@H]1CC[C@@]2(C)[C@@H](CC(=O)[C@H]3[C@@H](C)/C(=C/C(=O)OCCNC)CC[C@@H]32)[C@@]1(C)C(=O)OC`, the Activity entry is “Dose-dependent effect” with NCI-H1299 [5]; 3.96% in the test on A549 [10]; 8.14% with NCI-H1299 [19]; “Dose-dependent effect” with A549 [11]; 5.2% in the test on NCI-H1975 [20]; “Dose-dependent effect” in the test on NCI-H1975 [12]. Moreover, the Activity amounted to 1.87% with A549 [13]; 16.48% in the test with NCI-H1299 [21]; 3.24% in the test on NCI-H1299 [15]; 12.24% in the test on A549 [22]; 7.27% with A549 [23]; 2.14% in the test on NCI-H1975 [16]. Besides, the Activity in the test with NCI-H1975 [17] is listed as 3.02%; with NCI-H1975 [24], 7.56%; with NCI-H1299 [18], 4.52%. Further, the IC50 in the test on NCI-H1299 [1] is 0.9 µM; in the test on A549 [2], 0.5 µM; in the test with NCI-H1975 [3], 0.4 µM.
In the case of `C/C=C(\C)C(=O)O[C@H]1CC[C@@]2(C)[C@@H](C(=O)[C@H](O)[C@H]3[C@@H](C)/C(=C/C(=O)OCCNC)CC[C@@H]32)[C@@]1(C)C(=O)OC`, the half-inhibitory concentration (IC50) in the test with NCI-H1299 [1] came to 1.2 µM; in the test with A549 [2], 1.4 µM; with NCI-H1975 [3], 1.1 µM.

The IC50 is the concentration needed to halve the response being measured.
